Assay results reported in patent US7495028B2, “R-bambuterol, its preparation and therapeutic uses” (priority 2002, dated 2009).

How the values were obtained:
[1] = test system: conscious guinea pigs exposed to aerosol histamine; assay: Protection against histamine-evoked asthma in conscious guinea pigs; type: in vivo, guinea pig; conditions: for Collapsed n: 8 animals; for % collapse / Latency time of collapse: dose-response, four hours before exposure
Method: Test methods: Guinea pigs (Dunki-Hartley strain, 190±30 g) were fasted overnight but given water ad libidum. The animals were restrained individually in a glass chamber and exposed to aerosol histamine generated by a nebulizer from a 0.2% aqueous solution of histamine under constant pressure at dose of 0.5 ml/min for a period of 15 sec. The animal was removed from the chamber, and its behavior was monitored. A sign of collapse and the latency time from exposure to collapse were recorded. Only the animals with latency time less than 120 sec, as an indication of sensitive to histamine, were chosen for later experiments. The animals chosen were allowed to recover completly by resting for 24 hours before experiments. Test compounds and racemic bambuterol hydrochloride were dissolved in saline.
Time course of the effect of test compounds: R-Bambuterol hydrochloride or racemic bambuterol hydrochloride at 2, 4 and 8 mg/kg, and vehicle alone, were administered to the guinea pigs orally via a stomach tube. Exposure of treated animals to aerosol histamine (as above) was done at 1, 4 and 24 hours after treatment. For each experimental group, there were a total of 8 animals with equal number of both sexes, and no repeated exposure was made for individual experimental animals.
Study of dose-response of test compounds: Four hours before the exposure to aerosol histamine, animals were randomized into groups (n=8, equal male and female), and given R-bambuterol hydrochloride or racemic bambuterol in doses of 0.25, 0.5, 1.0, 2.0, 4.0 and 8.0 mg/kg, and vehicle control, orally via a stomach tube. The numbers of collapsed animal as a result of asthmatic reaction to aerosol histamine were counted, and the latency times were recorded. Both of these parameters were used as quantitative measurements of the protective effects of the treatments on bronchospasm evoked by aerosol histamine.

hyperlipidemia mice = assay: Lipid lowering effects in Tyloxapol-induced hyperlipidemia mice; type: in vivo
Method: Test method: Male and […] mice, Kunming strain, 35 each, weight 18-22 grams, were used. Food and water were available ad libitum. The animals were randomized into 7 groups (n=10). Groups of animals were administered orafly, via a stomach tube, vehicle (distilled water, two groups), R-bambuterol hydrochloride (10 mg/kg and 5 mg/kg), racemic bambuterol hydrochloride (10 mg/kg and 5 mg/kg) and simvastatin (10 mg/kg) once a day for four days. With the exception of one vehicle—treated group (as control), Tyloxapol (400 mg/kg, Sigma Chemical Co.) was injected into the peritoneal cavity of the mice of all groups immediately after the last treatment on the fourth day in order to induce hyperlipidemia. All the animals were fasted overnight prior to the injection of Tyloxapol. Blood samples were collected by cardiac puncture 24 hours after the injection of Tyloxapol. The blood samples were processed to plasma, and concentration of triglycerides (TG), cholesterol (CHO), high density lipoprotein (HDL), low density lipoprotein (LDL) and very low density lipoprotein (VLDL) were measured with an autoblood analyzer (Olympic, Japan).

[2] = in plasma; cited from earlier work
rats = assay: Cardiovascular effects in anesthetized rats; type: in vivo; conditions: 30 mg/kg intravenously
Description: Test method: Rats (Sprague Dawley, 250-300 g) were randomized into two groups (n=6, equal sexes). After anesthesia, plastic tubing was introduced into a carotid artery of each animal and connected to pressure transducers to record mean artery pressure (MBP) and heart rate (HR). Another tube was introduced into the left ventricular chamber via the another carotid artery and connected to a pressure transducer. Left ventricular systolic pressure (LVSP) and the first order of differential of LVSP (dp/dt) as an index for inotropic effects were recorded. R-Bambuterol and racemic bambuterol hydrochloride were dissolved in saline and administrated intravenously at 30 mg/kg to each animal. The HR, MBP and Max dp/dt were measured before treatment (control) and after the treatments when the maximum response occurred, and 20 min after treatment as indication of recovery.

SMILES: CN(C)C(=O)Oc1cc(OC(=O)N(C)C)cc(C(O)CNC(C)(C)C)c1 (stereo not shown) [RS-bambuterol, bambuterol]
- Collapsed % ([1]; 2 mg/kg oral, 1st Hour): 75.0%
- Latency ([1]; 2 mg/kg oral, 1st Hour): 168 ± 61 s
- Collapsed n ([1]; 2 mg/kg oral, 1st Hour): 6.0
- Collapsed % ([1]; 2 mg/kg oral, 4th Hour): 50.0%
- Latency ([1]; 2 mg/kg oral, 4th Hour): 227 ± 56 s
- Collapsed n ([1]; 2 mg/kg oral, 4th Hour): 4.0
- Collapsed % ([1]; 2 mg/kg oral, 24th Hour): 50.0%
- Latency ([1]; 2 mg/kg oral, 24th Hour): 208 ± 65 s
- Collapsed n ([1]; 2 mg/kg oral, 24th Hour): 5.0
- Collapsed % ([1]; 4 mg/kg oral, 1st Hour): 62.5%
- Latency ([1]; 4 mg/kg oral, 1st Hour): 199 ± 63 s
- Collapsed n ([1]; 4 mg/kg oral, 1st Hour): 5.0
- Collapsed % ([1]; 4 mg/kg oral, 4th Hour): 25.0%
- Latency ([1]; 4 mg/kg oral, 4th Hour): 299 ± 51 s
- Collapsed n ([1]; 4 mg/kg oral, 4th Hour): 2.0
- Collapsed % ([1]; 4 mg/kg oral, 24th Hour): 37.5%
- Latency ([1]; 4 mg/kg oral, 24th Hour): 287 ± 57 s
- Collapsed n ([1]; 4 mg/kg oral, 24th Hour): 3.0
- Collapsed % ([1]; 8 mg/kg oral, 1st Hour): 37.5%
- Latency ([1]; 8 mg/kg oral, 1st Hour): 260 ± 66 s
- Collapsed n ([1]; 8 mg/kg oral, 1st Hour): 3.0
- Collapsed % ([1]; 8 mg/kg oral, 4th Hour): 0.0%
- Latency ([1]; 8 mg/kg oral, 4th Hour): >360 s
- Collapsed n ([1]; 8 mg/kg oral, 4th Hour): 0.0
- Collapsed % ([1]; 8 mg/kg oral, 24th Hour): 25.0%
- Latency ([1]; 8 mg/kg oral, 24th Hour): 303 ± 54 s
- Collapsed n ([1]; 8 mg/kg oral, 24th Hour): 2.0
- % collapse ([1]; 0.25 mg/kg oral): 100%
- Latency time of collapse ([1]; 0.25 mg/kg oral): 61 s
- % collapse ([1]; 0.5 mg/kg oral): 87.5%
- Latency time of collapse ([1]; 0.5 mg/kg oral): 114 s
- % collapse ([1]; 1 mg/kg oral): 75%
- Latency time of collapse ([1]; 1 mg/kg oral): 151 s
- % collapse ([1]; 2 mg/kg oral): 50%
- Latency time of collapse ([1]; 2 mg/kg oral): 227 s
- % collapse ([1]; 4 mg/kg oral): 25%
- Latency time of collapse ([1]; 4 mg/kg oral): 299 s
- % collapse ([1]; 8 mg/kg oral): 0%
- Latency time of collapse ([1]; 8 mg/kg oral): >360 s
- Duration of protective effects ([1]; oral 2 to 8 mg/kg): 24 h
- Onset of protective effects after administration ([1]; oral 2 to 8 mg/kg): one
- Time of maximum protective effects after administration ([1]; oral 2 to 8 mg/kg): 4 h
- Dose at which full protective effect was seen ([1]; oral, collapse after aerosol histamine): 8 mg/kg
- ED50 (protection against collapse) ([1]; oral, four hours before aerosol histamine): 1.68 mg/kg
- Dose at which maximum effects on latency were seen ([1]; oral, latency time to collapse): 8 mg/kg
- CHO lipid level (hyperlipidemia mice; Tyl + 10 mg): 125.2 ± 19.8 mg/dL
- HDL lipid level (hyperlipidemia mice; Tyl + 10 mg): 50 ± 17 mg/dL
- LDL lipid level (hyperlipidemia mice; Tyl + 10 mg): 30 ± 6 mg/dL
- VLDL lipid level (hyperlipidemia mice; Tyl + 10 mg): 44.2 ± 14.4 mg/dL
- TG lipid level (hyperlipidemia mice; Tyl + 10 mg (10 mg/kg oral once a day for four days), plasma 24 hours after Tyloxapol): 148 ± 45 mg/dL
- Fraction of absorbed bambuterol hydrolyzed to terbutaline [2]: about 50%
- MBP 20 min after Δ, % of control (rats; 20 min after treatment): 8.3%
- MBP, 20 min after Δ (rats; 20 min after treatment): 1.1 ± 0.4 Kpa
- Maxdp/dt 20 min after Δ, % of control (rats; 20 min after treatment): 4.8%
- Maxdp/dt, 20 min after Δ (rats; 20 min after treatment): 13 ± 3.8 Kpa/sec
- HR 20 min after Δ, % of Control (rats; 20 min after treatment, listed as Rac-Bambuterol): 9.5%
- HR 20 min after Δ, % of Control (rats; 20 min after treatment, listed as racemic bambuterol hydrochloride): 9.5%
- HR Treatment Δ, % of Control (rats; maximum response): 20.6%
- HR, Treatment Δ (rats; maximum response): 85.8 ± 5 Beat/min
- MBP Treatment Δ, % of control (rats; maximum response): 31.6%
- MBP, Treatment Δ (rats; maximum response): 4.2 ± 0.5 Kpa
- Maxdp/dt, Treatment Δ (rats; maximum response): 65.4 ± 9 Kpa/sec
- Maxdp/dt Treatment Δ, % of control (rats; maximum response, listed as Rac-Bambuterol): 24.4%
- Maxdp/dt Treatment Δ, % of control (rats; maximum response, listed as racemic bambuterol): 24.4%
